Values joined by “and” are separate entries in the source; they are usually repeats but may differ in a detail not shown here. Identical values can stand only once.
Tested on: 156681-154-R-J1-PDC complex spheroid viability
Experiment: Anticancer human tumor 156681-154-R-J1-PDC patient-derived melanoma cell line growth inhibition [CLK]
Details: for viability, T/C: stronger effect = lower value
Excerpt: A high-throughput screen of multi-cell type tumor spheroids was designed to identify active combinations of […] and targeted small molecules. Complex spheroids include a stromal component modeled by human endothelial cells (HUVEC) and fibroblasts modeled by human mesenchymal stem cells (MSCs). The concentration ranges selected for each drug and investigational agent were based upon clinically achievable concentrations if the clinical Cmax of the agent was known.
Compounds. The drugs and investigational agents: cirtuvivint (SM08502; NSC835563), CC-671 (NSC850746), vemurafenib (NSC761431), tapotoclax (NSC804041), sotorasib (NSC818433), adagrasib (NSC831453), MRTX-1133 (NSC836407), BAY2416964 (NSC825713), copanlisib (NSC816437), inavolisib (NSC800729), abemaciclib (NSC768073), osimertinib (NSC779217), entinostat (NSC756642), eltanexor (KPT-8602, NSC794443), venetoclax (NSC766270), ceralasertib (NSC777638), bortezomib (NSC756655), olaparib (NSC753686), talazoparib (NSC767125), alisertib (NSC759677), peposertib (NSC802822), gemcitabine (NSC613327), 5-fluorouracil (NSC19893), SN-38 (NSC673596), oxaliplatin (NSC266046), paclitaxel (NSC125973), and doxorubicin (NSC123127), were obtained from the National Cancer Institute (NCI) Developmental Therapeutics Program Chemical Repository. The FDA-approved anticancer drug set is available from the Developmental Therapeutics Program at https://dtp.cancer.gov/organization/dscb/obtaining/available plates.htm. […] The stock solutions were prepared in dimethyl sulfoxide (DMSO, Sigma-Aldrich, St. Louis, MO, cat. D2650), except for the platinum complexes which were prepared in saline (Quality Biological, Gaithersburg, MD, cat. 114-055-101), at 800-fold the tested concentration and stored at -70 degrees C prior to their use. All drugs and investigational agents were tested over a range starting from a high concentration at or near the clinical Cmax and decreasing in half-log increments. If the clinical Cmax for an agent had not been determined, the highest concentration tested was 10 microM.
Cell Culture. All cells were maintained in an incubator at 37 degrees C and 5% CO2 with 95% humidity. The PDC lines were cultured according to standard operating procedures established by the NCI PDMR. Briefly, all PDCs were thawed and cultured in Matrigel-coated flasks prepared with a working solution of 1X Ham's F-12 nutrient mix, without supplementation (Invitrogen, Waltham, MA, cat. 11765054), 100 U/mL penicillin-streptomycin (Invitrogen, cat. 15140122), and 2.5% Matrigel (Corning Inc., Corning, NY, cat. 354248) for the first three passages. The 947758-054-R-J2-PDC line was cultured in 6B/Colon 1A media, which includes advanced DMEM/F-12 (Thermo Fisher Scientific, cat. 12634028), 10 mM HEPES (Thermo Fisher Scientific, cat. 15630080), 1X GlutaMAX supplement (Thermo Fisher Scientific, cat. 35050061), 0.1 mg/mL primocin (InvivoGen, cat. ant-pm-2), 10% defined fetal bovine serum, heat inactivated (HyClone Laboratories Inc., cat. SH30070.03HI), 1.25 mM N-Acetyl-L-cysteine (Sigma-Aldrich, cat. A9165), 10 mM nicotinamide (Sigma-Aldrich, cat. N0636), 1X B-27 supplement (Thermo Fisher Scientific, cat. 17504044), 1X N-2 supplement (Thermo Fisher Scientific, cat. 17502048), and 10 microM Y-27632 dihydrochloride (Tocris Bioscience, cat. 1254). The 876862-298-R-J1-PDC was cultured in 6E media, which includes all 6B/Colon 1A media components plus 50% L-WRN conditioned media (ATCC, cat. CRL-3276), 50 ng/mL recombinant human EGF recombinant protein (hEGF; Thermo Fisher Scientific, cat. PHG0311), 10 ng/mL recombinant human fibroblast growth factor 10 (hGFG-10; PeproTech, cat. 100-26), 1 ng/mL recombinant human fibroblast growth factor 2 (hFGF-2; PeproTech, cat. 100-18B), and 1 µM prostaglandin E2 (PGE2; Tocris, cat. 2296). The 227483-062-R1-J1-PDC line was cultured in Panc media, containing all 6E components except hFGF-2, with the addition of 500 nM SB-431542 (Selleckchem, cat. S1067) and 10 nM gastrin (Tocris, cat. 3006). […]

[1] = curve of first compound, second compound 0.0316 µM
[2] = curve of first compound, second compound 0.1 µM
[3] = curve of first compound, second compound 0.316 µM
[4] = curve of first compound, second compound 1 µM
[5] = curve of first compound, second compound 3.16 µM
[6] = curve of first compound, second compound 10 µM
[7] = second compound 0.0316 µM, first compound 0.0316 µM
[8] = second compound 0.0316 µM, first compound 0.1 µM
[9] = second compound 0.0316 µM, first compound 0.316 µM
[10] = second compound 0.0316 µM, first compound 1 µM
[11] = second compound 0.0316 µM, first compound 3.16 µM
[12] = second compound 0.0316 µM, first compound 10 µM
[13] = second compound 0.1 µM, first compound 0.0316 µM
[14] = second compound 0.1 µM, first compound 0.1 µM
[15] = second compound 0.1 µM, first compound 0.316 µM
[16] = second compound 0.1 µM, first compound 1 µM
[17] = second compound 0.1 µM, first compound 3.16 µM
[18] = second compound 0.1 µM, first compound 10 µM
[19] = second compound 0.316 µM, first compound 0.0316 µM
[20] = second compound 0.316 µM, first compound 0.1 µM
[21] = second compound 0.316 µM, first compound 0.316 µM
[22] = second compound 0.316 µM, first compound 1 µM
[23] = second compound 0.316 µM, first compound 3.16 µM
[24] = second compound 0.316 µM, first compound 10 µM
[25] = second compound 1 µM, first compound 0.0316 µM
[26] = second compound 1 µM, first compound 0.1 µM
[27] = second compound 1 µM, first compound 0.316 µM
[28] = second compound 1 µM, first compound 1 µM
[29] = second compound 1 µM, first compound 3.16 µM
[30] = second compound 1 µM, first compound 10 µM
[31] = second compound 3.16 µM, first compound 0.0316 µM
[32] = second compound 3.16 µM, first compound 0.1 µM
[33] = second compound 3.16 µM, first compound 0.316 µM
[34] = second compound 3.16 µM, first compound 1 µM
[35] = second compound 3.16 µM, first compound 3.16 µM
[36] = second compound 3.16 µM, first compound 10 µM
[37] = second compound 10 µM, first compound 0.0316 µM
[38] = second compound 10 µM, first compound 0.1 µM
[39] = second compound 10 µM, first compound 0.316 µM
[40] = second compound 10 µM, first compound 1 µM
[41] = second compound 10 µM, first compound 3.16 µM
[42] = second compound 10 µM, first compound 10 µM
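Further: spheroids exposed to the agents for seven days.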
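Wherever viability, T/C is given: 100% = DMSO vehicle control viability.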

C=CC(=O)N1CCN(c2nc(=O)n(-c3c(C)ccnc3C(C)C)c3nc(-c4c(O)cccc4F)c(F)cc23)C(C)C1 (configuration not stated) + CN1CCN(c2cc(C(=O)Nc3cc4cc(-c5cnn(C)c5)ccc4cn3)ccn2)CC1 was tested, and the IC50 [1] was greater than 10000 nM, the IC50 [2] was greater than 10000 nM and the IC50 [3] was less than 31.6 nM. It also gave an IC50 [4] of less than 31.6 nM, an IC50 [5] of less than 31.6 nM and an IC50 [6] of less than 31.6 nM. The viability, T/C [7] was 97.3%, the viability, T/C [8] was 88% and the viability, T/C [9] was 112%. It also gave a viability, T/C [10] of 129%, a viability, T/C [11] of 118% and a viability, T/C [12] of 97.9%. It also gave a viability, T/C [13] of 95.6%, a viability, T/C [14] of 78.6% and a viability, T/C [15] of 101%. It also gave a viability, T/C [16] of 99.9%, a viability, T/C [17] of 119% and a viability, T/C [18] of 100%. The viability, T/C [19] was 28.5%, the viability, T/C [20] was 27.9% and the viability, T/C [21] was 23.8%. It also gave a viability, T/C [22] of 30%, a viability, T/C [23] of 29.6% and a viability, T/C [24] of 10.9%. The viability, T/C [25] was 0.18%, the viability, T/C [26] was 3.34% and the viability, T/C [27] was 0.25%. For the same compound, the viability, T/C [28] was 0.17%, the viability, T/C [29] was 2% and the viability, T/C [30] was 0.82%. For the same compound, the viability, T/C [31] was 0.77%, the viability, T/C [32] was 0.21% and the viability, T/C [33] was 0.12%. For the same compound, the viability, T/C [34] was 0.11%, the viability, T/C [35] was 2.22% and the viability, T/C [36] was 3.15%. The viability, T/C [37] was 0.12%, the viability, T/C [38] was 0.14% and the viability, T/C [39] was 0.25%. The viability, T/C [40] was 0.17%, the viability, T/C [41] was 1.47% and the viability, T/C [42] was 0.3%.
With CCN1CCN(Cc2ccc(Nc3ncc(F)c(-c4cc(F)c5nc(C)n(C(C)C)c5c4)n3)nc2)CC1 the viability, T/C (compound 0.00316 µM) was 82.6% and 81.5%, the viability, T/C (compound 0.01 µM) was 82.6% and 92.4% and the viability, T/C (compound 0.0316 µM) was 83.9% and 84.2%. For the same compound, the viability, T/C (compound 0.1 µM) was 69.7% and 84.1%, the viability, T/C (compound 0.316 µM) was 66.8% and 75.8% and the viability, T/C (compound 1 µM) was 50.5% and 56.2%. For the same compound, the IC50 (curve of compound) was greater than 1000 nM.
With CC(=O)O[C@H]1C(=O)[C@@]2(C)[C@H]([C@H](OC(=O)c3ccccc3)[C@]3(O)C[C@H](OC(=O)[C@H](O)[C@@H](NC(=O)c4ccccc4)c4ccccc4)C(C)=C1C3(C)C)[C@]1(OC(C)=O)CO[C@@H]1C[C@@H]2O the viability, T/C (compound 0.0316 µM) was 19.9% and 16%, the viability, T/C (compound 0.1 µM) was 13.5% and 12.5% and the viability, T/C (compound 0.316 µM) was 14.8% and 14.5%. The viability, T/C (compound 1 µM) was 23.2% and 18.2%, the viability, T/C (compound 3.16 µM) was 26.6% and 27.1% and the viability, T/C (compound 10 µM) was 26.6% and 32.9%. The IC50 (curve of compound) was less than 31.6 nM.
In the case of COc1cccc2c1C(=O)c1c(O)c3c(c(O)c1C2=O)CC(O)(C(=O)CO)CC3OC1CC(N)C(O)C(C)O1 (configuration not stated) + CNC(=O)c1ccc(Nc2nc(OC3CCCC3)c3c(-c4ccc5nc(C)oc5c4)c[nH]c3n2)c(OC)c1, the IC50 [1] is reported as less than 31.6 nM, the IC50 [2] is reported as less than 31.6 nM and the IC50 [3] is reported as less than 31.6 nM. It also gave an IC50 [4] of less than 31.6 nM, an IC50 [5] of less than 31.6 nM and an IC50 [6] of less than 31.6 nM. For the same compound, the viability, T/C [7] was 28.9%, the viability, T/C [8] was 20.6% and the viability, T/C [9] was 2.62%. For the same compound, the viability, T/C [10] was 0.17%, the viability, T/C [11] was 0.29% and the viability, T/C [12] was 2.75%. The viability, T/C [13] was 27.2%, the viability, T/C [14] was 20% and the viability, T/C [15] was 3.42%. It also gave a viability, T/C [16] of 0.17%, a viability, T/C [17] of 0.11% and a viability, T/C [18] of 0.1%. The viability, T/C [19] was 30.7%, the viability, T/C [20] was 18.2% and the viability, T/C [21] was 2.21%. It also gave a viability, T/C [22] of 0.13%, a viability, T/C [23] of 0.1% and a viability, T/C [24] of 0.32%. It also gave a viability, T/C [25] of 18.9%, a viability, T/C [26] of 9.29% and a viability, T/C [27] of 1.41%. The viability, T/C [28] was 0.1%, the viability, T/C [29] was 1.2% and the viability, T/C [30] was 1.16%. For the same compound, the viability, T/C [31] was 17.6%, the viability, T/C [32] was 6.96% and the viability, T/C [33] was 0.58%. For the same compound, the viability, T/C [34] was 0.12%, the viability, T/C [35] was 0.1% and the viability, T/C [36] was 0.08%. For the same compound, the viability, T/C [37] was 16.3%, the viability, T/C [38] was 6.19% and the viability, T/C [39] was 2.01%. The viability, T/C [40] was 0.71%, the viability, T/C [41] was 0.12% and the viability, T/C [42] was 0.11%.
In the case of COc1ccc([C@@H](O)c2cc(-c3ncnc4cc(N5CCOCC5)ccc34)c(F)cc2Cl)nn1, the viability, T/C (compound 0.0316 µM) is reported as 109% and 79.3%, the viability, T/C (compound 0.1 µM) is reported as 80.7% and 73.7% and the viability, T/C (compound 0.316 µM) is reported as 90.2% and 74.1%. For the same compound, the viability, T/C (compound 1 µM) was 74.8% and 48.6%, the viability, T/C (compound 3.16 µM) was 49.6% and 41.3% and the viability, T/C (compound 10 µM) was 24.8% and 27.6%. The IC50 (curve of compound) was 3380 nM and 1260 nM.
In the case of Nc1ccn(C2OC(CO)C(O)C2(F)F)c(=O)n1 (configuration not stated), the viability, T/C (compound 0.0316 µM) is reported as 14.4% and 13.7%, the viability, T/C (compound 0.1 µM) is reported as 13.7% and 12.6% and the viability, T/C (compound 0.316 µM) is reported as 15.7% and 16.1%. For the same compound, the viability, T/C (compound 1 µM) was 12.8% and 13.2%, the viability, T/C (compound 3.16 µM) was 16.9% and 14.6% and the viability, T/C (compound 10 µM) was 13.1% and 14.5%. For the same compound, the IC50 (curve of compound) was less than 31.6 nM.
